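Compound exposure: 48 hours, 5 concentrations, 96-well plates. At the GI50, growth is halved.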 Active and inactive are the calls of the source. No stated cut-off is given here; in the data, active = GI50 up to about 1.1 µM and inactive = higher.
What was measured:
Experiment in all cases: DTP human tumour cell line panel, 48 h
[1] = test system: SK-MEL-2
[2] = test system: EKVX
[3] = test system: TK-10
[4] = test system: HL-60
[5] = test system: SF-295
[6] = test system: HOP-62
[7] = test system: ACHN
[8] = test system: A549
[9] = test system: M14
[10] = test system: PC-3
[11] = test system: SW-620
[12] = test system: UACC-62
[13] = test system: SK-MEL-28
[14] = test system: Malme-3M
[15] = test system: T47D
[16] = test system: OVCAR-4
[17] = test system: OVCAR-5
[18] = test system: NCI-H460
[19] = test system: LOX IMVI
[20] = test system: SF-268

SMILES | GI50 [1] | GI50 [2] | GI50 [3] | GI50 [4] | GI50 [5] | GI50 [6] | GI50 [7] | GI50 [8] | GI50 [9] | GI50 [10] | GI50 [11] | GI50 [12] | GI50 [13] | GI50 [14] | GI50 [15] | GI50 [16] | GI50 [17] | GI50 [18] | GI50 [19] | GI50 [20]
CC(C)Cn1cnc2c(SCc3ccccn3)nc(N)nc21 | > 100 µM (inactive) | > 100 µM (inactive) | > 100 µM (inactive) | > 100 µM (inactive) | > 100 µM (inactive) | > 100 µM (inactive) | > 100 µM (inactive) | > 100 µM (inactive) | > 100 µM (inactive) | > 100 µM (inactive) | > 100 µM (inactive) | > 100 µM (inactive) | > 100 µM (inactive) | > 100 µM (inactive) | 80.7 µM (inactive) | > 100 µM (inactive) | > 100 µM (inactive) | > 100 µM (inactive) | > 100 µM (inactive) | > 100 µM (inactive)
Cc1cc(C(=O)CBr)c(CN2C(=O)c3ccccc3C2=O)c(=O)n1C | 27 µM (inactive) | 2.21 µM (inactive) | 7.43 µM (inactive) | 5.09 µM (inactive) | 38.5 µM (inactive) | 47.4 µM (inactive) | 8.47 µM (inactive) | 18.8 µM (inactive) | 43.1 µM (inactive) | 17.2 µM (inactive) | 3.78 µM (inactive) | 16.6 µM (inactive) | 20.4 µM (inactive) | 19.4 µM (inactive) | 25.5 µM (inactive) | 14.7 µM (inactive) | 24.9 µM (inactive) | 26.3 µM (inactive) | 12.9 µM (inactive) | 24.4 µM (inactive)
COn1cc(C=O)c2ccccc21 | > 91.8 µM (inactive) | 23.7 µM (inactive) | > 54.3 µM (inactive) | 0.551 µM (active) | 44.1 µM (inactive) | 81.3 µM (inactive) | 32.7 µM (inactive) | > 67 µM (inactive) | > 61.8 µM (inactive) | > 74.1 µM (inactive) | 26 µM (inactive) | 41 µM (inactive) | 33.6 µM (inactive) | > 93.8 µM (inactive) | 65.8 µM (inactive) | > 50.5 µM (inactive) | > 74.6 µM (inactive) | 35.1 µM (inactive) | > 65.2 µM (inactive) | 68.4 µM (inactive)
O=c1oc2ccc([N+](=O)[O-])cc2cc1Br | > 100 µM (inactive) | > 100 µM (inactive) | > 100 µM (inactive) | 39 µM (inactive) | > 100 µM (inactive) | 71.6 µM (inactive) | 78.5 µM (inactive) | > 100 µM (inactive) | 35.7 µM (inactive) | > 100 µM (inactive) | > 100 µM (inactive) | 31.6 µM (inactive) | > 100 µM (inactive) | > 100 µM (inactive) | 70.6 µM (inactive) | > 100 µM (inactive) | > 100 µM (inactive) | > 100 µM (inactive) | 61.2 µM (inactive) | 27.4 µM (inactive)
O=C(NCCCCCN1CCC2(CCCCC2)CC1)C(C1CCCCC1)C1CCCCC1 | 2.21 µM (inactive) | 3.6 µM (inactive) | 4.71 µM (inactive) | 1.56 µM (inactive) | 1.88 µM (inactive) | 1.85 µM (inactive) | 3.67 µM (inactive) | 5.94 µM (inactive) | 1.68 µM (inactive) | 2.77 µM (inactive) | 2.6 µM (inactive) | 2.48 µM (inactive) | 1.83 µM (inactive) | 1.75 µM (inactive) | 2.51 µM (inactive) | 3.59 µM (inactive) | 6.22 µM (inactive) | 2.45 µM (inactive) | 2.7 µM (inactive) | 5.35 µM (inactive)
O=C(NCP(=O)(c1ccccc1)c1ccccc1)OCc1ccccc1 | > 100 µM (inactive) | > 100 µM (inactive) | > 100 µM (inactive) | > 100 µM (inactive) | 58.6 µM (inactive) | 27.4 µM (inactive) | > 100 µM (inactive) | 66.8 µM (inactive) | > 100 µM (inactive) | 64.3 µM (inactive) | > 100 µM (inactive) | > 100 µM (inactive) | > 100 µM (inactive) | > 100 µM (inactive) | > 100 µM (inactive) | 43.5 µM (inactive) | > 100 µM (inactive) | > 100 µM (inactive) | > 100 µM (inactive) | 21.4 µM (inactive)
OCC1OC(n2cnc3c(/C=C(/O)c4ccccc4)ncnc32)C(O)C1O (stereo not given) | 1.01 µM (active) | 19.1 µM (inactive) | 0.516 µM (active) | 0.165 µM (active) | 5.13 µM (inactive) | 5.21 µM (inactive) | 0.923 µM (active) | 1.29 µM (inactive) | 0.813 µM (active) | 4.04 µM (inactive) | 0.875 µM (active) | 8.3 µM (inactive) | 41.8 µM (inactive) | 5.33 µM (inactive) | 3.03 µM (inactive) | 2.84 µM (inactive) | 3.98 µM (inactive) | 0.594 µM (active) | 1.63 µM (inactive) | 5.78 µM (inactive)
COc1ccc(C2OC(=O)c3ccc4ccccc4c32)c(C)c1 (stereo not given) | 2.1 µM (inactive) | 18.8 µM (inactive) | 15.2 µM (inactive) | 3.69 µM (inactive) | 2.98 µM (inactive) | 7.26 µM (inactive) | 20.6 µM (inactive) | 6.31 µM (inactive) | 6.73 µM (inactive) | 9.08 µM (inactive) | 3.96 µM (inactive) | 6.93 µM (inactive) | 11.9 µM (inactive) | 8.18 µM (inactive) | 7.6 µM (inactive) | 19.6 µM (inactive) | 19.9 µM (inactive) | 4.18 µM (inactive) | 7.89 µM (inactive) | 45.2 µM (inactive)
CN(C)/C=N/S(=O)(=O)c1nn2c(C=O)c(-c3ccc(-c4ccc([N+](=O)[O-])cc4)o3)nc2s1 | 7.28 µM (inactive) | 5.07 µM (inactive) | 3.39 µM (inactive) | 0.807 µM (active) | 7.08 µM (inactive) | 7.43 µM (inactive) | 1.97 µM (inactive) | 3.62 µM (inactive) | 2.12 µM (inactive) | 3.37 µM (inactive) | 0.933 µM (active) | 3.68 µM (inactive) | 2.4 µM (inactive) | 1.78 µM (inactive) | 5.52 µM (inactive) | 3.54 µM (inactive) | 4.04 µM (inactive) | 1.63 µM (inactive) | 2.33 µM (inactive) | 4.61 µM (inactive)
O=C(O)/C(Cc1ccc([N+](=O)[O-])cc1)=N\O | > 100 µM (inactive) | 39.1 µM (inactive) | > 100 µM (inactive) | 61.9 µM (inactive) | > 100 µM (inactive) | > 100 µM (inactive) | > 100 µM (inactive) | > 100 µM (inactive) | > 100 µM (inactive) | > 100 µM (inactive) | > 100 µM (inactive) | > 100 µM (inactive) | > 100 µM (inactive) | > 100 µM (inactive) | 94.6 µM (inactive) | 89.5 µM (inactive) | > 100 µM (inactive) | > 100 µM (inactive) | > 100 µM (inactive) | > 100 µM (inactive)
CN1CCN(C)C12C=c1ccccc1=CC21CC1 | 24.3 µM (inactive) | > 95.9 µM (inactive) | 66.7 µM (inactive) | 3.02 µM (inactive) | > 77.6 µM (inactive) | > 91.4 µM (inactive) | 74.8 µM (inactive) | > 91.4 µM (inactive) | 18.6 µM (inactive) | 32.3 µM (inactive) | 22.2 µM (inactive) | 18.6 µM (inactive) | 20.7 µM (inactive) | 28.5 µM (inactive) | 45.1 µM (inactive) | 71.3 µM (inactive) | > 100 µM (inactive) | 30.8 µM (inactive) | 34.6 µM (inactive) | 29.7 µM (inactive)
Cn1c(=S)sc2nc3ccccc3n2c1=S | 51.1 µM (inactive) | 17.3 µM (inactive) | 21.2 µM (inactive) | 2.49 µM (inactive) | 18.8 µM (inactive) | 17 µM (inactive) | 11.3 µM (inactive) | 24.7 µM (inactive) | 4.47 µM (inactive) | 19.6 µM (inactive) | 12 µM (inactive) | 11.4 µM (inactive) | 12.4 µM (inactive) | 13.9 µM (inactive) | 9.84 µM (inactive) | 16 µM (inactive) | 15.3 µM (inactive) | 9.86 µM (inactive) | 5.97 µM (inactive) | 10.9 µM (inactive)
C=CCOCn1cnc2c(=O)[nH]c(N)nc21 | > 100 µM (inactive) | > 100 µM (inactive) | > 100 µM (inactive) | > 100 µM (inactive) | > 100 µM (inactive) | > 100 µM (inactive) | > 100 µM (inactive) | > 100 µM (inactive) | > 100 µM (inactive) | > 100 µM (inactive) | > 100 µM (inactive) | > 100 µM (inactive) | > 100 µM (inactive) | > 100 µM (inactive) | > 100 µM (inactive) | > 100 µM (inactive) | > 100 µM (inactive) | > 100 µM (inactive) | > 100 µM (inactive) | > 100 µM (inactive)
CC(C)C1=Cc2ccc3c(c2C(=O)C1=O)CCCC3 | 7.35 µM (inactive) | 9.14 µM (inactive) | 2.52 µM (inactive) | 1.01 µM (active) | 12.8 µM (inactive) | 21.4 µM (inactive) | 3.49 µM (inactive) | 5.96 µM (inactive) | 5.11 µM (inactive) | 13.8 µM (inactive) | 3.3 µM (inactive) | 7.46 µM (inactive) | 7.5 µM (inactive) | 2.58 µM (inactive) | 0.227 µM (active) | 1.51 µM (inactive) | 13.9 µM (inactive) | 10.6 µM (inactive) | 10.4 µM (inactive) | 7.11 µM (inactive)
